Measured values from PMC12638379, “An innovative approach to development of new pyrazolylquinolin-2-one hybrids as dual EGFR and BRAF^V600E inhibitors” (Molecular Diversity, 2025).
Read-outs that look alike come from different tables or passages of the source.

Tests used:
[1] = tested on: NCI 60 cancer cell lines; assay: NCI anticancer screening over a panel of 60 cancer cells, single concentration 10 µM; format: cell-based, human; details: Homo sapiens, read-out: % Growth Inhibition (GI %)
Method in brief: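 Run under the NCI Compound Evaluation Branch protocol, each compound was tested once at 10 µM. The panel comprised 60 cancer cell lines of diverse tissue origin, including leukemia, lung, colon, CNS, renal, ovarian, breast and prostate.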

[2] = molecular target: BRAF^V600E (Homo sapiens, UniProt P15056, V600E); assay: BRAF^V600E inhibitory assay (B-Raf (V600E) Kinase Assay); format: biochemical; details: read-out: BRAF^V600E inhibition IC50 ± SEM
[3] = tested on: lung cancer (HOP-92) cell line; assay: MTT antiproliferative assay, HOP-92; format: cell-based, human
Procedure: […]. […] See Appendix B.
(§1) After 24 h of culture incubation and supernatants discarded.

[4] = tested on: breast cancer (T47D) cell line; assay: MTT antiproliferative assay, T-47D
Procedure: The median inhibitory concentration (IC50) and GI50 (average IC50) against the three cancer cell lines were calculated. See Appendix B.
Cells were cultured using DMEM (Invitrogen/Life Technologies) supplemented with 10% FBS (Hyclone,), 10 ug/ml of insulin (Sigma), and 1% penicillin-streptomycin. Plate cells (cells density 1.2 – 1.8 × 10,000 cells/well) in a volume of 100µl complete growth medium + 100 ul of the tested compound per well in a 96-well plate for 24 hours before the MTT assay. In atypical experiment, one hundred micro liters of serial 10-fold diluted sterile tested compounds were added to final concentrations of […] using culture media as negative control. After 24 h of culture incubation and supernatants discarded. HOP-92 lung, MOLT-4 leukemia, and T-47D breast cell lines were trypsinized and washed with Ca2/Mg2 free PBS (pH 7.2). we removed cultures from incubator into laminar flow hood or other sterile work area. […] Each test should include a blank containing complete medium without cells. […] Add reconstituted MTT in an amount equal to 10% of the culture medium volume. Return cultures to incubator for 2-4 hours depending on cell type and maximum cell density. […] Spectrophotometrically absorbance was measured at a wavelength of 570 nm. Measure the background absorbance of multiwell plates at 690 nm and subtract from the […] measurement. Results from all experiments were recorded and the percentage of viable cells was calculated.

[5] = MTT cytotoxicity on normal cell line WI-38; details: human, WI-38 normal cells, % viability
[6] = molecular target: T1, EGFR (Homo sapiens, UniProt P00533); assay: EGFR inhibitory assay; format: biochemical; details: for %inh: EGFR, unit not given
T1 construct: EGFR cytoplasmic domain (EGFR-CD, amino acids 645–1186); His6 (N); made in house; host or cells: Sf-9 insect cells (baculovirus)

[7] = tested on: leukemia (MOLT-4) cell line; assay: MTT antiproliferative assay, MOLT-4; format: cell-based, human
Procedure: as §1

T1 sequence (P00533 669-1210): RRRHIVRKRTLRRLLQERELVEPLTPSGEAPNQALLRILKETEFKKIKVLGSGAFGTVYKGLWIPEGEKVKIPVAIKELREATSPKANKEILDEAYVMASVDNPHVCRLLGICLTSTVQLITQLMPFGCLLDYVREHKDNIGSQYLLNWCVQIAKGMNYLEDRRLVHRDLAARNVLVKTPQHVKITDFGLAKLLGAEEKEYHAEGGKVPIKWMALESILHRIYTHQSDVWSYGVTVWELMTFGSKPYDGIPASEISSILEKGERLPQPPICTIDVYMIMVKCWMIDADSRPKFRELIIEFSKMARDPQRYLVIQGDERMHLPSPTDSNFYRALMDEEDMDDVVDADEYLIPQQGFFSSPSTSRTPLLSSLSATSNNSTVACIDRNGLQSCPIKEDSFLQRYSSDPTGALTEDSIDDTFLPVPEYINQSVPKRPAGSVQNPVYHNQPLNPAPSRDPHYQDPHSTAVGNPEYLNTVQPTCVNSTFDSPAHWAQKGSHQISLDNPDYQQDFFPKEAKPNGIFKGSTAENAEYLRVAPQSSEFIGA
Sequence of BRAF^V600E (P15056 whole entry V600E): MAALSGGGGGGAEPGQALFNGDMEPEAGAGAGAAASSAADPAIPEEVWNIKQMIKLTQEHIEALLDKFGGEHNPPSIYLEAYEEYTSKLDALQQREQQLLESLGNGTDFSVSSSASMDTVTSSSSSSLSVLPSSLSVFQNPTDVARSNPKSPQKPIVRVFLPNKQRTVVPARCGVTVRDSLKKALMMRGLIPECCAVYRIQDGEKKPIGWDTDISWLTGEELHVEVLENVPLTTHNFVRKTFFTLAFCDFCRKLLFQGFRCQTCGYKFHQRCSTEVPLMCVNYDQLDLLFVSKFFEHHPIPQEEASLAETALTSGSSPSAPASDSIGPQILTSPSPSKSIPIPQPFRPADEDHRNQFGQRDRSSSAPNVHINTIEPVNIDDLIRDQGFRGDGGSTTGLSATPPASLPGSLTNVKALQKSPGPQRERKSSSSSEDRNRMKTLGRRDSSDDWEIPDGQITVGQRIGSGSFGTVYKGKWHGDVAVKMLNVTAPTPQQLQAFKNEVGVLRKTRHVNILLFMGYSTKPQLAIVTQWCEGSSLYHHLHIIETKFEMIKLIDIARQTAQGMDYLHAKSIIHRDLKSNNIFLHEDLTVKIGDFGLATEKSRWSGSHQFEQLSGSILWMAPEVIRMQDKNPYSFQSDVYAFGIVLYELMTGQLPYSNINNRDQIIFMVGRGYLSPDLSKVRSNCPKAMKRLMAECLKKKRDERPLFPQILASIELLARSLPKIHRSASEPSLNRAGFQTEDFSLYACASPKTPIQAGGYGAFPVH

C/C(=N\Nc1ccc(C(=O)O)cc1)c1cnn(-c2cc(=O)[nH]c3ccc(C)cc23)c1C [Compound 4g, (E)-4-(2-(1-(5-methyl-1-(6-methyl-2-oxo-1,2-dihydroquinolin-4-yl)-1H-pyrazol-4-yl)ethylidene)hydrazineyl)benzoic acid]
inhibition at 10 µM ([1]; 786-0, Renal cancer 786-0, 10 μM): 6.84% | inhibition at 10 µM ([1]; A498, Renal cancer A498, 10 μM): < 5% | inhibition at 10 µM ([1]; A549, Non-small cell lung cancer A549/ATCC, 10 μM): < 5% | inhibition at 10 µM ([1]; ACHN, Renal cancer ACHN, 10 μM): < 5% | inhibition at 10 µM ([1]; BT-549, Breast cancer BT-549, 10 μM): 11.6% | inhibition at 10 µM ([1]; CAKI-1, Renal cancer CAKI-1, 10 μM): 10.3% | inhibition at 10 µM ([1]; CCRF-CEM, Leukemia CCRF-CEM, 10 μM): 6.98% | inhibition at 10 µM ([1]; DU-145, Prostate cancer DU-145, 10 μM): < 5% | inhibition at 10 µM ([1]; EKVX, Non-small cell lung cancer EKVX, 10 μM): 7.01% | inhibition at 10 µM ([1]; HCC 2998, Colon cancer HCC-2998, 10 μM): < 5% | inhibition at 10 µM ([1]; HL-60, Leukemia HL-60(TB), 10 μM): < 5% | inhibition at 10 µM ([1]; HOP-62, Non-small cell lung cancer HOP-62, 10 μM): 6.86% | inhibition at 10 µM ([1]; HOP-92, Non-small cell lung cancer HOP-92, 10 μM): 93.9% | inhibition at 10 µM ([1]; HT-29, Colon cancer HT29, 10 μM): < 5% | inhibition at 10 µM ([1]; Hs-578T, Breast cancer HS 578T, 10 μM): 7.48% | inhibition at 10 µM ([1]; IGROV-1, Ovarian cancer IGROV1, 10 μM): < 5% | inhibition at 10 µM ([1]; K562, Leukemia K-562, 10 μM): < 5% | inhibition at 10 µM ([1]; LOX IMVI, Melanoma LOX IMVI, 10 μM): 5.11% | inhibition at 10 µM ([1]; Leukemia SR, 10 μM): 11.4% | inhibition at 10 µM ([1]; MCF7, Breast cancer MCF7, 10 μM): 9.62% | inhibition at 10 µM ([1]; MDA-MB-231, Breast cancer MDA-MB-231/ATCC, 10 μM): 8.94% | inhibition at 10 µM ([1]; MDA-MB-435, Melanoma MDA-MB-435, 10 μM): < 5% | inhibition at 10 µM ([1]; MDA-MB-468, Breast cancer MDA-MB-468, 10 μM): 16.8% | inhibition at 10 µM ([1]; Melanoma MALM-3M, 10 μM): 16.7% | inhibition at 10 µM ([1]; NCI-H23, Non-small cell lung cancer NCI-H23, 10 μM): < 5% | inhibition at 10 µM ([1]; NCI-H226, Non-small cell lung cancer NCI-H226, 10 μM): 9.91% | inhibition at 10 µM ([1]; NCI-H322M, Non-small cell lung cancer NCI-H322M, 10 μM): < 5% | inhibition at 10 µM ([1]; NCI-H460, Non-small cell lung cancer NCI-H460, 10 μM): < 5% | inhibition at 10 µM ([1]; NCI-H522, Non-small cell lung cancer NCI-H522, 10 μM): 10.6% | inhibition at 10 µM ([1]; NCI/ADR-RES, Ovarian cancer NCI/ADR-RES, 10 μM): < 5% | inhibition at 10 µM ([1]; OVCAR-4, Ovarian cancer OVCAR-4, 10 μM): 5.43% | inhibition at 10 µM ([1]; OVCAR-8, Ovarian cancer OVCAR-8, 10 μM): < 5% | inhibition at 10 µM ([1]; Prostate cancer PC-3, 10 μM): 11.2% | inhibition at 10 µM ([1]; RPMI-8226, Leukemia RPMI-8226, 10 μM): 14.9% | inhibition at 10 µM ([1]; RXF 393, Renal cancer RXF 393, 10 μM): 6.27% | inhibition at 10 µM ([1]; SF-539, CNS Cancer SF-539, 10 μM): < 5% | inhibition at 10 µM ([1]; SK-MEL-2, Melanoma SK-MEL-2, 10 μM): < 5% | inhibition at 10 µM ([1]; SK-MEL-28, Melanoma SK-MEL-28, 10 μM): < 5% | inhibition at 10 µM ([1]; SK-OV-3, Ovarian cancer SK-OV-3, 10 μM): 5.67% | inhibition at 10 µM ([1]; SN12C, Renal cancer SN12C, 10 μM): 7.44% | inhibition at 10 µM ([1]; SNB-75, CNS Cancer SNB-75, 10 μM): 8.08% | inhibition at 10 µM ([1]; TK-10, Renal cancer TK-10, 10 μM): < 5% | inhibition at 10 µM ([1]; U-251, CNS Cancer U251, 10 μM): < 5% | inhibition at 10 µM ([1]; UACC-62, Melanoma UACC-62, 10 μM): 8.46% | inhibition at 10 µM ([1]; UACC-257, Melanoma UACC-257, 10 μM): < 5% | inhibition at 10 µM ([1]; UO-31, Renal cancer UO-31, 10 μM): 32.1% | IC50 [2]: 0.194 ± 0.008 µM | % viability ([3]; HOP-92, MTT, 25uM, listed as Ws7, 25 µM): 48.02% | % viability ([3]; HOP-92, MTT, 100uM, listed as Ws7, 100 µM): 33.71% | viability at 0.4 µM ([3]; Homo sapiens, HOP-92, HOP-92, MTT, 0.4uM, read-out: % viability): 78% | viability at 1.6 µM ([3]; Homo sapiens, HOP-92, HOP-92, MTT, 1.6uM, read-out: % viability): 67% | viability at 6.3 µM ([3]; Homo sapiens, HOP-92, HOP-92, MTT, 6.3uM, read-out: % viability): 56.5% | viability at 25 µM ([3]; Homo sapiens, HOP-92, HOP-92, MTT, 25uM, read-out: % viability): 48% | viability at 100 µM ([3]; Homo sapiens, HOP-92, HOP-92, MTT, 100uM, read-out: % viability): 33.7% | IC50 ([3]; Homo sapiens, HOP-92, MTT, read-out: Antiproliferative activity IC50 ± SEM, HOP-92): 14.7 ± 0.66 µM | viability at 0.4 µM ([4]; Homo sapiens, T47D, T-47D, 0.4uM (log conc. -0.41)): 68.5% | viability at 1.6 µM ([4]; Homo sapiens, T47D, T-47D, 1.6uM (log conc. 0.19)): 61.7% | viability at 6.3 µM ([4]; Homo sapiens, T47D, T-47D, 6.3uM (log conc. 0.8)): 55% | viability at 25 µM ([4]; Homo sapiens, T47D, T-47D, 25uM (log conc. 1.4)): 44.6% | viability at 100 µM ([4]; Homo sapiens, T47D, T-47D, 100uM (log conc. 2)): 34% | IC50 ([4]; Homo sapiens, T47D, read-out: Antiproliferative activity IC50 ± SEM, T-47D, MTT): 9.71 ± 0.34 µM | % viability ([4]; T-47D, 0.4uM (log conc. -0.41), listed as Ws7, 0.4 µM): 68.49% | % viability ([4]; T-47D, 1.6uM (log conc. 0.19), listed as Ws7, 1.6 µM): 61.66% | % viability ([4]; T-47D, 6.3uM (log conc. 0.8), listed as Ws7, 6.3 µM): 55.01% | % viability ([4]; T-47D, 25uM (log conc. 1.4), listed as Ws7, 25 µM): 44.58% | % viability ([4]; T-47D, 100uM (log conc. 2), listed as Ws7, 100 µM): 33.98% | viability at 24 h, 0.4 µM ([5]; WI38, 0.4uM (log conc. -0.41)): 80.4% | viability at 24 h, 1.6 µM ([5]; WI38, 1.6uM (log conc. 0.19)): 70.2% | viability at 24 h, 6.3 µM ([5]; WI38, 6.3uM (log conc. 0.8)): 62.8% | viability at 24 h, 25 µM ([5]; WI38, 25uM (log conc. 1.4)): 51.6% | viability at 24 h, 100 µM ([5]; WI38, 100uM (log conc. 2)): 44.1% | %inh ([6]; conc 0.01 (log -2)): 21% | %inh ([6]; conc 0.1 (log -1)): 44.2% | %inh ([6]; conc 1 (log 0)): 71.4% | %inh ([6]; conc 10 (log 1)): 86.3% | %inh ([6]; conc 100 (log 2)): 94.5% | IC50 ([6]; read-out: EGFR inhibition IC50 ± SEM): 0.194 ± 0.007 µM | viability at 0.4 µM ([7]; Homo sapiens, MOLT-4, MOLT-4, MTT, 0.4uM): 68.9% | viability at 1.6 µM ([7]; Homo sapiens, MOLT-4, MOLT-4, MTT, 1.6uM): 54.8% | viability at 6.3 µM ([7]; Homo sapiens, MOLT-4, MOLT-4, MTT, 6.3uM): 48.2% | viability at 25 µM ([7]; Homo sapiens, MOLT-4, MOLT-4, MTT, 25uM): 42.4% | viability at 100 µM ([7]; Homo sapiens, MOLT-4, MOLT-4, MTT, 100uM): 35.3% | IC50 ([7]; Homo sapiens, MOLT-4, MTT, read-out: Antiproliferative activity IC50 ± SEM, MOLT-4): 6.17 ± 0.25 µM | % viability ([7]; MOLT-4, MTT, 1.6uM, listed as Ws7, 1.6 µM): 54.85% | % viability ([7]; MOLT-4, MTT, 6.3uM, listed as Ws7, 6.3 µM): 48.2% | % viability ([7]; MOLT-4, MTT, 25uM, listed as Ws7, 25 µM): 42.37% | % viability ([7]; MOLT-4, MTT, 100uM, listed as Ws7, 100 µM): 35.35%
